# Source: the supplement of paper PMC11208160
# Experiment: recombinant barcode read abundance after kanamycin selection (control-corrected) (log10(CPM+1)); higher = more efficient recombination; sequences stand for … in AGTGCAGAGAAAATCGGCCAGTTTTCTCTGCCTGCAGTCCGCATGCCGT…ATTTATGCAGCGGACTGCCTTTCTCCCAAAGTGATAAACCGGACAGTATCATGGACCGGTTTTCCCGGTAATCCGTATTTGCAAGGTTGGTTTCACT; site = the 11-nt target
# How it was run: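 Oligos holding a promoter, target, barcode and the J23119-driven first 104 bases of the bridge RNA were Gibson-cloned into a vector that supplied the other 73 bp plus a T7-inducible recombinase. This library was co-electroporated with a donor plasmid into E. coli. Two replicates went on chloramphenicol/ampicillin LB agar (control) and two on chloramphenicol/ampicillin/kanamycin with 0.1 mM IPTG. Recombination efficiency is read from averaged, control-corrected barcode counts per million at recombinant junctions, reported as log10(CPM+1).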
row,Sequence,recombinant barcode read abundance (log10)
1,"CGAGCCCTTTGGGTTCTAACCTGTTGCTGAA [CGAGCCCCTCA_LTGcore_TT_RTGcore_TT] (site CGAGCCCCTCA) (LTG core: TT, RTG core: TT)",0.0246
2,"CGCGCCCAATGGGTTCTAACCTGTTGCGGAG [CGCGCCCCTCC_LTGcore_AA_RTGcore_CT] (site CGCGCCCCTCC) (LTG core: AA, RTG core: CT)",0.173
3,"CGCGCCCCTTGGGTTCTAACCTGTTGCGGCT [CGCGCCCCTCC_LTGcore_CT_RTGcore_AG] (site CGCGCCCCTCC) (LTG core: CT, RTG core: AG)",0.0596
4,"CGCGCCCCTTGGGTTCTAACCTGTTGCGGGA [CGCGCCCCTCC_LTGcore_CT_RTGcore_TC] (site CGCGCCCCTCC) (LTG core: CT, RTG core: TC)",0.0431
5,"CGCGCCCCTTGGGTTCTAACCTGTTGCGGTG [CGCGCCCCTCC_LTGcore_CT_RTGcore_CA] (site CGCGCCCCTCC) (LTG core: CT, RTG core: CA)",0.382
6,"CGCGCCCTATGGGTTCTAACCTGTTGCGGTA [CGCGCCCCTCC_LTGcore_TA_RTGcore_TA] (site CGCGCCCCTCC) (LTG core: TA, RTG core: TA)",0.0456
7,"CGGTCCCAATGGGTTCTAACCTGTTGCCAAG [CGGTCCCCTTG_LTGcore_AA_RTGcore_CT] (site CGGTCCCCTTG) (LTG core: AA, RTG core: CT)",0.3
8,"CGGTCCCAATGGGTTCTAACCTGTTGCCATT [CGGTCCCCTTG_LTGcore_AA_RTGcore_AA] (site CGGTCCCCTTG) (LTG core: AA, RTG core: AA)",0.0857
9,"CGGTCCCACTGGGTTCTAACCTGTTGCCAAG [CGGTCCCCTTG_LTGcore_AC_RTGcore_CT] (site CGGTCCCCTTG) (LTG core: AC, RTG core: CT)",0.0364
10,"CGGTCCCATTGGGTTCTAACCTGTTGCCAAT [CGGTCCCCTTG_LTGcore_AT_RTGcore_AT] (site CGGTCCCCTTG) (LTG core: AT, RTG core: AT)",0.494
11,"CGGTCCCCATGGGTTCTAACCTGTTGCCAAG [CGGTCCCCTTG_LTGcore_CA_RTGcore_CT] (site CGGTCCCCTTG) (LTG core: CA, RTG core: CT)",0.51
12,"CGGTCCCCCTGGGTTCTAACCTGTTGCCAGG [CGGTCCCCTTG_LTGcore_CC_RTGcore_CC] (site CGGTCCCCTTG) (LTG core: CC, RTG core: CC)",0.0887
13,"CGGTCCCCGTGGGTTCTAACCTGTTGCCAAG [CGGTCCCCTTG_LTGcore_CG_RTGcore_CT] (site CGGTCCCCTTG) (LTG core: CG, RTG core: CT)",0.38
14,"CGGTCCCCTTGGGTTCTAACCTGTTGCCAGA [CGGTCCCCTTG_LTGcore_CT_RTGcore_TC] (site CGGTCCCCTTG) (LTG core: CT, RTG core: TC)",0.0215
15,"CGGTCCCCTTGGGTTCTAACCTGTTGCCAGG [CGGTCCCCTTG_LTGcore_CT_RTGcore_CC] (site CGGTCCCCTTG) (LTG core: CT, RTG core: CC)",0.129
16,"CGGTCCCCTTGGGTTCTAACCTGTTGCCAGT [CGGTCCCCTTG_LTGcore_CT_RTGcore_AC] (site CGGTCCCCTTG) (LTG core: CT, RTG core: AC)",0.258
17,"CGGTCCCGATGGGTTCTAACCTGTTGCCAAG [CGGTCCCCTTG_LTGcore_GA_RTGcore_CT] (site CGGTCCCCTTG) (LTG core: GA, RTG core: CT)",0.197

row,Sequence,recombinant barcode read abundance (log10)
1,"CGGTCCCGATGGGTTCTAACCTGTTGCCATC [CGGTCCCCTTG_LTGcore_GA_RTGcore_GA] (site CGGTCCCCTTG) (LTG core: GA, RTG core: GA)",0.3
2,"CGGTCCCGGTGGGTTCTAACCTGTTGCCAAG [CGGTCCCCTTG_LTGcore_GG_RTGcore_CT] (site CGGTCCCCTTG) (LTG core: GG, RTG core: CT)",0.0912
3,"CGGTCCCGTTGGGTTCTAACCTGTTGCCAAG [CGGTCCCCTTG_LTGcore_GT_RTGcore_CT] (site CGGTCCCCTTG) (LTG core: GT, RTG core: CT)",0.292
4,"GAGCCCAAATGGGTTCTAACCTGTTGCCTTT [GAGCCCACTAG_LTGcore_AA_RTGcore_AA] (site GAGCCCACTAG) (LTG core: AA, RTG core: AA)",0.102
5,"GAGCCCAACTGGGTTCTAACCTGTTGCCTAG [GAGCCCACTAG_LTGcore_AC_RTGcore_CT] (site GAGCCCACTAG) (LTG core: AC, RTG core: CT)",0.135
6,"GAGCCCAAGTGGGTTCTAACCTGTTGCCTAG [GAGCCCACTAG_LTGcore_AG_RTGcore_CT] (site GAGCCCACTAG) (LTG core: AG, RTG core: CT)",0.0502
7,"GAGCCCAATTGGGTTCTAACCTGTTGCCTAG [GAGCCCACTAG_LTGcore_AT_RTGcore_CT] (site GAGCCCACTAG) (LTG core: AT, RTG core: CT)",0.204
8,"GAGCCCACATGGGTTCTAACCTGTTGCCTTG [GAGCCCACTAG_LTGcore_CA_RTGcore_CA] (site GAGCCCACTAG) (LTG core: CA, RTG core: CA)",0.49
9,"GAGCCCACCTGGGTTCTAACCTGTTGCCTAG [GAGCCCACTAG_LTGcore_CC_RTGcore_CT] (site GAGCCCACTAG) (LTG core: CC, RTG core: CT)",0.29
10,"GAGCCCACGTGGGTTCTAACCTGTTGCCTCG [GAGCCCACTAG_LTGcore_CG_RTGcore_CG] (site GAGCCCACTAG) (LTG core: CG, RTG core: CG)",0.282
11,"GAGCCCACTTGGGTTCTAACCTGTTGCCTAA [GAGCCCACTAG_LTGcore_CT_RTGcore_TT] (site GAGCCCACTAG) (LTG core: CT, RTG core: TT)",0.912
12,"GAGCCCACTTGGGTTCTAACCTGTTGCCTAC [GAGCCCACTAG_LTGcore_CT_RTGcore_GT] (site GAGCCCACTAG) (LTG core: CT, RTG core: GT)",0.369
13,"GAGCCCACTTGGGTTCTAACCTGTTGCCTAG [GAGCCCACTAG_LTGcore_CT_RTGcore_CT] (site GAGCCCACTAG) (LTG core: CT, RTG core: CT)",1.45
14,"GAGCCCACTTGGGTTCTAACCTGTTGCCTCT [GAGCCCACTAG_LTGcore_CT_RTGcore_AG] (site GAGCCCACTAG) (LTG core: CT, RTG core: AG)",0
15,"GAGCCCACTTGGGTTCTAACCTGTTGCCTTG [GAGCCCACTAG_LTGcore_CT_RTGcore_CA] (site GAGCCCACTAG) (LTG core: CT, RTG core: CA)",0.835
16,"GAGCCCACTTGGGTTCTAACCTGTTGCCTTT [GAGCCCACTAG_LTGcore_CT_RTGcore_AA] (site GAGCCCACTAG) (LTG core: CT, RTG core: AA)",0.37
17,"GAGCCCAGGTGGGTTCTAACCTGTTGCCTCC [GAGCCCACTAG_LTGcore_GG_RTGcore_GG] (site GAGCCCACTAG) (LTG core: GG, RTG core: GG)",0.596
